Test results published in article PMC7558026, “Exploring and applying the substrate promiscuity of a C-glycosyltransferase in the chemo-enzymatic synthesis of bioactive C-glycosides” (Nature Communications, 2020).
Where “and” joins values, the source holds several entries; their conditions need not be identical. Equal values may be shown once.

What was measured:
E. coli-AbCGT = assay: Glycosylation by whole-cell biocatalyst E. coli-AbCGT; type: cell-based; settings: fig. 2c, 30 °C, M9 medium, 12 h, 0.25 mM acceptor; Reaction-1 to -3
Description: The induced cells of E. coli-AbCGT were harvested by centrifugation at 3000 × g for 5 min at 4 °C and washed with ddH2O. Pellets were resuspended by M9 minimal medium containing 2% glucose to appropriate cell density (OD600 = 3.0). Prepared whole-cell biocatalyst of E. coli-AbCGT (500 μL) was then added to 2-mL tubes containing various acceptors at a concentration of 0.25 mM. The mixture was incubated at 30 °C for 12 h with shaking (200 rpm). The reactions were analyzed using GT activity assays as described above. For quantification, three parallel assays were routinely carried out.

AbCGT = AbCGT (Aloe vera, UniProt A0A7G9P699); assay: Glycosyltransferase activity assay, purified AbCGT (wild type) with aglycon acceptors and UDP-Glc; type: biochemical, Aloe barbadensis; settings: fig. 2b, purified AbCGT, redesigned substrates; Reaction-1 to -3
Description: Due to the instability of some acceptors in the buffer of pH 11.0, the reactions were performed under the physiological conditions (pH 7.4, 30 °C) to compare the catalytic activities of AbGT27 with different substrates under the same conditions. The reactions were performed at 30 °C for up to 12 h and terminated by the addition of 200 μL of ice-cold methanol. Subsequently, samples were centrifuged at 15,000 × g for 30 min to collect the supernatant, and aliquots were analyzed by HPLC-UV/ESIMS. […] The gradient programs were used for the analysis of the reactions (Supplementary Table 6). The conversion rates of the enzyme reactions were calculated from peak areas of glycosylated products and substrates as analyzed by HPLC. To facilitate inferential statistical analysis, three parallel assays were routinely performed; the means ± SD from triplicate analyses are reported here.

SGLT2 = target: T1, SGLT2 (Homo sapiens, UniProt P31639); assay: 1-NBDG uptake in HEK293 cells stably expressing SGLT2; type: cell-based; settings: HEK293, compound at 10 μM; triplicate; read-out: SGLT2 inhibitory rates
T1 construct: Human full-length SGLT2 cDNA (NM_003041.3) was synthesized; expressed in transfected cells; host or cells: HEK293, retroviral transduction with pMSCVpuro-SGLT2, puromycin selected
T1 sequence (P31639 1-672): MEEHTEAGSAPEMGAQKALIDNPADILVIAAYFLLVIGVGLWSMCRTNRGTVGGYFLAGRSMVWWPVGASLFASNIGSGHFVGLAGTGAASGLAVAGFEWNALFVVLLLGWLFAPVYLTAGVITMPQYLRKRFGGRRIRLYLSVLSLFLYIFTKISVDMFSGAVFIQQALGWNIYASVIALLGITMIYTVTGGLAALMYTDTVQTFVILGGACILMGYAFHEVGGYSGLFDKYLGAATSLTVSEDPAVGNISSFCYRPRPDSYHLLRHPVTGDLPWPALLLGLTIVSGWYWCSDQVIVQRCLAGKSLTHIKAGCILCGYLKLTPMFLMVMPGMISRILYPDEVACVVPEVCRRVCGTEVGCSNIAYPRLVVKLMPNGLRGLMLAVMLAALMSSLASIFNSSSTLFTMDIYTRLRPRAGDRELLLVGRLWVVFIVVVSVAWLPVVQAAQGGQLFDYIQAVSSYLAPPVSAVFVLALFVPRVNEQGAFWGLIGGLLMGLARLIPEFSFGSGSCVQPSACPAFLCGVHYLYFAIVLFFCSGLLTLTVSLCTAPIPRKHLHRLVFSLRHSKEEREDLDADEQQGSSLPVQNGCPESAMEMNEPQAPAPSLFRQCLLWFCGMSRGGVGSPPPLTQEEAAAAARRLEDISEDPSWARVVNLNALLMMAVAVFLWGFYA

Sequence of AbCGT (A0A7G9P699 entry or part of it): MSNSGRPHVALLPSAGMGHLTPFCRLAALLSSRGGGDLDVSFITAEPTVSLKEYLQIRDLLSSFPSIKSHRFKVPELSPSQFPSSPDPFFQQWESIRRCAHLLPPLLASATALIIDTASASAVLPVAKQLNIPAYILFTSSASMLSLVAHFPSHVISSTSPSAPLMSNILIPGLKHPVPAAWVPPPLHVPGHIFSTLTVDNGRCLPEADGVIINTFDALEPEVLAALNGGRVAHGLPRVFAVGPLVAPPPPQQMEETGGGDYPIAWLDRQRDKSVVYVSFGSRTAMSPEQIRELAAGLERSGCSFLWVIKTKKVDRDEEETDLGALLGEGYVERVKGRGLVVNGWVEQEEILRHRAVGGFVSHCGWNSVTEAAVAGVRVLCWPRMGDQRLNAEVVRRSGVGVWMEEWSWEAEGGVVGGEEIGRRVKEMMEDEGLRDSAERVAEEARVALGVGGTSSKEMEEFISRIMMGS

| SMILES | conversion rates, Whole cells (E. coli-AbCGT) | conversion rates, Purified Enzyme (AbCGT) | inhibition at 10 µM (SGLT2) |
| --- | --- | --- | --- |
| Oc1ccc(Cc2ccccc2)c(O)c1 [Compound 28] | 0.5% and 0.7% and 0.3% | 55.6% and 72.2% and 58.2% |  |
| Oc1ccc(/N=N/c2nccs2)c(O)c1 [Compound 29] | 3.7% and 5.4% and 5.9% | 35.9% and 40% and 39.9% |  |
| OCC1OC(c2c(O)cc(O)c(Cc3ccccc3)c2O)C(O)C(O)C1O (stereo not shown) [Compound 38a] |  |  | 76.4% |
| OCC1OC(c2c(O)cc(O)c(CCc3ccccc3)c2O)C(O)C(O)C1O (stereo not shown) [Compound 39a] |  |  | 23.6% |
| OCC1OC(c2c(O)cc(O)c(Cc3ccsc3)c2O)C(O)C(O)C1O (stereo not shown) [Compound 42a] |  |  | 68.5% |
| OCC1OC(c2c(O)cc(O)c(CCc3c[nH]c4ccccc34)c2O)C(O)C(O)C1O (stereo not shown) [Compound 43a] |  |  | 20.4% |
| OCC1OC(c2c(O)cc(O)c(Cc3ccc(F)cc3)c2O)C(O)C(O)C1O (stereo not shown) [Compound 48a] |  |  | 85.4% |
| OCC1OC(c2c(O)cc(O)c(CCc3ccc(O)cc3)c2O)C(O)C(O)C1O (stereo not shown) [Compound 51a] |  |  | 18.6% |
| OCC1OC(c2c(O)cc(O)c(CCc3ccc4c(c3)CCO4)c2O)C(O)C(O)C1O (stereo not shown) [Compound 52a] |  |  | 36.7% |
| OCC1OC(c2c(O)cc(O)c(CCc3ccc(F)cc3)c2O)C(O)C(O)C1O (stereo not shown) [Compound 53a] |  |  | 24.3% |
| OCC1OC(c2c(O)cc(O)c(CCc3ccc(Cl)cc3)c2O)C(O)C(O)C1O (stereo not shown) [Compound 54a] |  |  | 62.5% |
